Measured values: ChEMBL document CHEMBL4251634, “Synthesis and antimicrobial activity of pyrimidinyl 1,3,4-oxadiazoles, 1,3,4-thiadiazoles and 1,2,4-triazoles” (2018)

Columns and labels:
Format in all cases: functional
[1] = test system: Staphylococcus aureus; assay: Antibacterial activity against Staphylococcus aureus assessed as diameter of inhibition zone at 12.5 ug/well after 24 hrs by agar well diffusion method; details: read-out: DIZ
[2] = test system: Staphylococcus aureus; assay: Antibacterial activity against Staphylococcus aureus assessed as diameter of inhibition zone at 25 ug/well after 24 hrs by agar well diffusion method; details: read-out: DIZ
[3] = test system: Staphylococcus aureus; assay: Antibacterial activity against Staphylococcus aureus assessed as diameter of inhibition zone at 50 ug/well after 24 hrs by agar well diffusion method; details: read-out: DIZ
[4] = test system: Staphylococcus aureus; assay: Antibacterial activity against Staphylococcus aureus assessed as diameter of inhibition zone at 100 ug/well after 24 hrs by agar well diffusion method; details: read-out: DIZ
[5] = test system: Bacillus subtilis; assay: Antibacterial activity against Bacillus subtilis assessed as diameter of inhibition zone at 12.5 ug/well after 24 hrs by agar well diffusion method; details: read-out: DIZ
[6] = test system: Bacillus subtilis; assay: Antibacterial activity against Bacillus subtilis assessed as diameter of inhibition zone at 25 ug/well after 24 hrs by agar well diffusion method; details: read-out: DIZ
[7] = test system: Bacillus subtilis; assay: Antibacterial activity against Bacillus subtilis assessed as diameter of inhibition zone at 50 ug/well after 24 hrs by agar well diffusion method; details: read-out: DIZ
[8] = test system: Bacillus subtilis; assay: Antibacterial activity against Bacillus subtilis assessed as diameter of inhibition zone at 100 ug/well after 24 hrs by agar well diffusion method; details: read-out: DIZ
[9] = test system: Pseudomonas aeruginosa; assay: Antibacterial activity against Pseudomonas aeruginosa assessed as diameter of inhibition zone at 12.5 ug/well after 24 hrs by agar well diffusion method; details: read-out: DIZ
[10] = test system: Pseudomonas aeruginosa; assay: Antibacterial activity against Pseudomonas aeruginosa assessed as diameter of inhibition zone at 25 ug/well after 24 hrs by agar well diffusion method; details: read-out: DIZ
[11] = test system: Pseudomonas aeruginosa; assay: Antibacterial activity against Pseudomonas aeruginosa assessed as diameter of inhibition zone at 50 ug/well after 24 hrs by agar well diffusion method; details: read-out: DIZ
[12] = test system: Pseudomonas aeruginosa; assay: Antibacterial activity against Pseudomonas aeruginosa assessed as diameter of inhibition zone at 100 ug/well after 24 hrs by agar well diffusion method; details: read-out: DIZ
[13] = test system: Klebsiella pneumoniae; assay: Antibacterial activity against Klebsiella pneumoniae assessed as diameter of inhibition zone at 12.5 ug/well after 24 hrs by agar well diffusion method; details: read-out: DIZ
[14] = test system: Klebsiella pneumoniae; assay: Antibacterial activity against Klebsiella pneumoniae assessed as diameter of inhibition zone at 25 ug/well after 24 hrs by agar well diffusion method; details: read-out: DIZ
[15] = test system: Klebsiella pneumoniae; assay: Antibacterial activity against Klebsiella pneumoniae assessed as diameter of inhibition zone at 50 ug/well after 24 hrs by agar well diffusion method; details: read-out: DIZ
[16] = test system: Klebsiella pneumoniae; assay: Antibacterial activity against Klebsiella pneumoniae assessed as diameter of inhibition zone at 100 ug/well after 24 hrs by agar well diffusion method; details: read-out: DIZ
[17] = test system: Aspergillus niger; assay: Antifungal activity against Aspergillus niger assessed as diameter of inhibition zone at 12.5 ug/well after 48 hrs by agar well diffusion method; details: read-out: DIZ
[18] = test system: Aspergillus niger; assay: Antifungal activity against Aspergillus niger assessed as diameter of inhibition zone at 25 ug/well after 48 hrs by agar well diffusion method; details: read-out: DIZ
[19] = test system: Aspergillus niger; assay: Antifungal activity against Aspergillus niger assessed as diameter of inhibition zone at 50 ug/well after 48 hrs by agar well diffusion method; details: read-out: DIZ
[20] = test system: Aspergillus niger; assay: Antifungal activity against Aspergillus niger assessed as diameter of inhibition zone at 100 ug/well after 48 hrs by agar well diffusion method; details: read-out: DIZ
[21] = test system: Penicillium chrysogenum; assay: Antifungal activity against Penicillium chrysogenum assessed as diameter of inhibition zone at 12.5 ug/well after 48 hrs by agar well diffusion method; details: read-out: DIZ
[22] = test system: Penicillium chrysogenum; assay: Antifungal activity against Penicillium chrysogenum assessed as diameter of inhibition zone at 25 ug/well after 48 hrs by agar well diffusion method; details: read-out: DIZ
[23] = test system: Penicillium chrysogenum; assay: Antifungal activity against Penicillium chrysogenum assessed as diameter of inhibition zone at 50 ug/well after 48 hrs by agar well diffusion method; details: read-out: DIZ
[24] = test system: Penicillium chrysogenum; assay: Antifungal activity against Penicillium chrysogenum assessed as diameter of inhibition zone at 100 ug/well after 48 hrs by agar well diffusion method; details: read-out: DIZ
[25] = test system: Staphylococcus aureus; assay: Antibacterial activity against Staphylococcus aureus after 24 hrs by turbidity-based broth dilution assay
[26] = test system: Pseudomonas aeruginosa; assay: Antibacterial activity against Pseudomonas aeruginosa after 24 hrs by turbidity-based broth dilution assay
[27] = test system: Klebsiella pneumoniae; assay: Antibacterial activity against Klebsiella pneumoniae after 24 hrs by turbidity-based broth dilution assay
[28] = test system: Aspergillus niger; assay: Antifungal activity against Aspergillus niger after 48 hrs by turbidity-based broth dilution assay
[29] = test system: Penicillium chrysogenum; assay: Antifungal activity against Penicillium chrysogenum after 48 hrs by turbidity-based broth dilution assay
[30] = test system: Staphylococcus aureus; assay: Bactericidal activity against Staphylococcus aureus incubated for 24 hrs followed by regrowth on sterile nutrient broth for 24 hrs
[31] = test system: Bacillus subtilis; assay: Bactericidal activity against Bacillus subtilis incubated for 24 hrs followed by regrowth on sterile nutrient broth for 24 hrs; design: unit not given here
[32] = test system: Pseudomonas aeruginosa; assay: Bactericidal activity against Pseudomonas aeruginosa incubated for 24 hrs followed by regrowth on sterile nutrient broth for 24 hrs
[33] = test system: Klebsiella pneumoniae; assay: Bactericidal activity against Klebsiella pneumoniae incubated for 24 hrs followed by regrowth on sterile nutrient broth for 24 hrs
[34] = test system: Aspergillus niger; assay: Fungicidal activity against Aspergillus niger incubated for 48 hrs followed by regrowth on PDA plates for 48 hrs
[35] = test system: Penicillium chrysogenum; assay: Fungicidal activity against Penicillium chrysogenum incubated for 48 hrs followed by regrowth on PDA plates for 48 hrs
[36] = test system: Pseudomonas aeruginosa; assay: Ratio of MBC to MIC for Pseudomonas aeruginosa
[37] = test system: Aspergillus niger; assay: Ratio of MFC to MIC for Aspergillus niger

Compound | zone of inhibition at 12.5 µg/disc [1] [mm] | zone of inhibition at 25 µg/disc [2] [mm] | zone of inhibition at 50 µg/disc [3] [mm] | zone of inhibition at 100 µg/disc [4] [mm] | zone of inhibition at 12.5 µg/disc [5] [mm] | zone of inhibition at 25 µg/disc [6] [mm] | zone of inhibition at 50 µg/disc [7] [mm] | zone of inhibition at 100 µg/disc [8] [mm] | zone of inhibition at 12.5 µg/disc [9] [mm] | zone of inhibition at 25 µg/disc [10] [mm] | zone of inhibition at 50 µg/disc [11] [mm] | zone of inhibition at 100 µg/disc [12] [mm] | zone of inhibition at 12.5 µg/disc [13] [mm] | zone of inhibition at 25 µg/disc [14] [mm] | zone of inhibition at 50 µg/disc [15] [mm] | zone of inhibition at 100 µg/disc [16] [mm] | zone of inhibition at 12.5 µg/disc [17] [mm] | zone of inhibition at 25 µg/disc [18] [mm] | zone of inhibition at 50 µg/disc [19] [mm] | zone of inhibition at 100 µg/disc [20] [mm] | also measured
Cc1cc(SCc2nnc(-c3ccc([N+](=O)[O-])cc3)s2)nc(SCc2nnc(-c3ccc([N+](=O)[O-])cc3)s2)n1 | 16 | 18 | 20 | 23 | 22 | 24 | 27 | 31 | 28 | 31 | 33 | 35 | 31 | 33 | 35 | 38 | 27 | 29 | 32 | 35 | zone of inhibition at 12.5 µg/disc [21]: 20 mm; zone of inhibition at 25 µg/disc [22]: 22 mm; zone of inhibition at 50 µg/disc [23]: 24 mm; zone of inhibition at 100 µg/disc [24]: 26 mm; MIC [25]: 50 µg; MIC [26]: 6.25 µg; MIC [27]: 12.5 µg; MIC [28]: 12.5 µg; MIC [29]: 50 µg; MBC [30]: 200 µg; MBC [31]: 100; MBC [32]: 12.5 µg; MBC [33]: 50 µg; MFC [34]: 50 µg; MFC [35]: 200 µg; Ratio [36]: 2
Cc1cc(SCc2nnc(-c3ccc([N+](=O)[O-])cc3)n2N)nc(SCc2nnc(-c3ccc([N+](=O)[O-])cc3)n2N)n1 | 13 | 15 | 17 | 19 | 18 | 20 | 22 | 26 | 23 | 26 | 28 | 31 | 25 | 27 | 29 | 32 | 33 | 35 | 37 | 40 | zone of inhibition at 12.5 µg/disc [21]: 23 mm; zone of inhibition at 25 µg/disc [22]: 25 mm; zone of inhibition at 50 µg/disc [23]: 27 mm; zone of inhibition at 100 µg/disc [24]: 31 mm; MIC [25]: 100 µg; MIC [26]: 12.5 µg; MIC [27]: 25 µg; MIC [28]: 6.25 µg; MIC [29]: 25 µg; MBC [30]: >200 µg; MBC [31]: 200; MBC [32]: 50 µg; MBC [33]: 100 µg; MFC [34]: 12.5 µg; MFC [35]: 100 µg; Ratio [37]: 2
